Measurements taken from article PMC9032457, “Binding Interaction of Betulinic Acid to α-Glucosidase and Its Alleviation on Postprandial Hyperglycemia” (Molecules, 2022).
Read-outs that look alike come from different tables or passages of the source.

Experiments:
[1] = test system: postprandial blood glucose level; assay: Oral glucose tolerance test (OGTT); format: in vivo, BALB/c mice; settings: normal mice, oral BA 20 mg/kg or acarbose 7 mg/kg; glucose 2 g/kg
Experimental: (§1) The dynamic characteristics of postprandial blood glucose level were evaluated by ODTT and OGTT, which were performed as described previously. BALB/c mice (5 weeks old, male) were purchased from Guangdong Medical Laboratory Animal Center (Guangzhou, China). The animal study was approved by the Committee on the Ethics of Animal Experiments of the Institute of Microbiology, Guangdong Academy of Science (GT-IACUC202012102). After one week of acclimation, the mice were randomly divided into a control group, BA-treated group and acarbose-treated group (n = 8), respectively. […] After 30 min, all the mice were intragastrically administered with the mixed maltose-sucrose solution (2 g/kg). In total, 10 μL of blood was collected by tail cut and glucose levels at 0, 30, 60, 90 and 120 min was measured by glucometer (Roche ACCU-CHEK Performa Nano), respectively. Two days later, all the mice were give the oral glucose tolerance test (OGTT), which was performed as the ODTT modus. The oral dose of glucose was also 2 g/kg.

[2] = test system: postprandial blood glucose level; assay: Oral disaccharide tolerance test (ODTT); format: in vivo, BALB/c mice; settings: normal mice, oral BA 20 mg/kg or acarbose 7 mg/kg; for postprandial blood glucose levels vs control: after mixed maltose-sucrose, p < 0.01; for blood glucose level at 30 min: mixed maltose-sucrose 2 g/kg, control 12.58 ± 0.47
Experimental: as §1

α-glucosidase [3] = target: T1, α-glucosidase (Saccharomyces cerevisiae, UniProt P53341); assay: Enzyme inhibition kinetics (Lineweaver-Burk plot); format: biochemical
T1 construct: purchased Sigma-Aldrich
T1 sequence (P53341 whole entry): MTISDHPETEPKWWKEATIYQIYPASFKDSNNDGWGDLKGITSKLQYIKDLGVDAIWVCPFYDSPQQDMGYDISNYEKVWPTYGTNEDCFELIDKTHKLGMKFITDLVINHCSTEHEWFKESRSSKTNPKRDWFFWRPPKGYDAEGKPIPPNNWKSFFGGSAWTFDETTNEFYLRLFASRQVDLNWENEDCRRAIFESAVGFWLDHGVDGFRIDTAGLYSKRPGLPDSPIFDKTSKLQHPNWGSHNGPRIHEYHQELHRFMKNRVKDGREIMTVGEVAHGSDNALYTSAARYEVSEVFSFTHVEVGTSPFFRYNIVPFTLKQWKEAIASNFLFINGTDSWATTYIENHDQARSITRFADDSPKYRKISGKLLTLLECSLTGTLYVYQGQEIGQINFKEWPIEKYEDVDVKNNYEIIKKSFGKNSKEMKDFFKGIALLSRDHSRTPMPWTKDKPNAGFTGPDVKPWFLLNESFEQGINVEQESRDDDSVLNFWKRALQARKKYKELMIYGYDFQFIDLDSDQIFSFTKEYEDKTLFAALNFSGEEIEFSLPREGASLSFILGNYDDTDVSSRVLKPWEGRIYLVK
Experimental: α-Glucosidase inhibition kinetics was studied as previously reported. BA was set with the concentrations of 0, 12 and 24 μM for 0.2 U/mL α-glucosidase. A series of concentrations of pNPG were used as substrates. The inhibition type was determined by using the Lineweaver–Burk plots and its secondary equations. The kinetic parameters (Vmax and Ki) were evaluated by the nonlinear regression of the Michaelis–Menton equation with GraphPad Prism 7.0. (https://www.graphpad.com/support/prism-7-updates/, accessed on 12 May 2021).

α-glucosidase [4] = target: T1, α-glucosidase; assay: Combination of acarbose with BA on α-glucosidase activity; format: biochemical, yeast; design: key to Vab (observed residual activity) / Vc (expected residual activity): fraction of remaining α-glucosidase activity (0–1)
Experimental: The method was the same as the α-glucosidase activity assay. […] The value for BA (Vb) was also defined. If the inhibitory effects on α-glucosidase of the two compounds are independent, the final remnant activity fraction of α-glucosidase (Vc) is equal to VaVb when the reaction is sequentially treated by those two compounds. […] The types of interaction were determined by the relationship between Vab and Va, Vb, or Vc.

α-glucosidase [5] = target: T1, α-glucosidase; design: method as in PMID 29902001, doi:10.1016/j.indcrop.2015.08.031, PMID 33876656; settings: in vitro; read-out: IC50 against α-glucosidase, previous research; cited from earlier work
α-glucosidase [6] = target: T1, α-glucosidase; assay: SPR assay (Biacore T200); format: binding; settings: 1:1 Langmuir model, enzyme immobilized on CM5 chip, read-out: equilibrium dissociation constant (KD)
Experimental: SPR analysis was applied on a Biacore T200 system (GE Healthcare, Uppsala, Sweden). α-Glucosidase solution (50 μg/mL) was prepared and stayed at room temperature for 30 min. Then, the activated α-glucosidase was immobilized on a CM5 sensor chip pre-activated by EDC/NHS with an amine coupling kit at a flow rate of 10 μL/min. BA solution of different concentrations containing 5% DMSO was serially injected over α-glucosidase coated surface. PBS was used as the mobile phase with a flow rate of 30 μL/min. According to the 1:1 Langmuir model, the equilibrium dissociation constant (KD) was calculated by the Biacore evaluation software. (https://www.cytivalifesciences.com/en/us/shop/protein-analysis/spr-label-free-analysis/software/biacore-insight-evaluation-software-p-23528, accessed on 26 October 2016).

α-glucosidase [7] = target: T1, α-glucosidase; assay: α-Glucosidase inhibition assay (pNPG substrate); format: biochemical
Experimental: α-Glucosidase inhibition was assayed according to the methods described previously. Briefly, 40 μL phosphate buffer (0.1 M, pH = 6.8), 10 μL BA solutions and 50 μL α-glucosidase solution (0.4 U/mL) were added into 96-well plates and mixed thoroughly. After being incubated at 37 °C for 10 min, 50 μL pNPG solution (2.5 mM) was added to initiate the reaction and stayed at 37 °C for 30 min. Then, 40 μL Na2CO3 solution (1.0 M) was added to terminate the reaction. A microplate reader was employed to read the absorbance at 405 nm. The inhibition rates (%) = [(ODcontrol − ODcontrol blank) − (OD test − ODtest blank)]/(ODcontrol − ODcontrol blank) × 100%.

α-glucosidase [8] = target: T1, α-glucosidase; design: method as in PMID 29030193; settings: literature; cited from earlier work

C=C(C)[C@@H]1CC[C@]2(C(=O)O)CC[C@]3(C)[C@H](CC[C@@H]4[C@@]5(C)CC[C@H](O)C(C)(C)[C@@H]5CC[C@]43C)[C@@H]12 [BA, betulinic acid]
effect on blood glucose level after oral glucose [1]: no significant effect | postprandial blood glucose levels vs control [2]: significantly suppressed | blood glucose level at 30 min [2]: 10.46 ± 0.31 mM | inhibition type (α-glucosidase [3]; Lineweaver-Burk plot, BA 0, 12 and 24 μM, 0.2 U/mL enzyme): non-competitive | Ki (α-glucosidase [3]; from secondary plot of slope vs. BA, read-out: inhibition kinetic constant (Ki)): 38.5 µM | Interaction (α-glucosidase [4]; BA 5 μM + acarbose 600 μM): SY (Vab − Vc < −0.1 is considered as the synergistic (SY) interaction between BA and acarbose) | Vab (observed residual activity) (α-glucosidase [4]; BA 5 μM + acarbose 600 μM): 0.47 | Vab − Vc (α-glucosidase [4]; BA 5 μM + acarbose 600 μM): −0.12 | Vc (expected residual activity) (α-glucosidase [4]; BA 5 μM + acarbose 600 μM): 0.59 | Interaction (α-glucosidase [4]; BA 5 μM + acarbose 800 μM): SY (Vab − Vc < −0.1 is considered as the synergistic (SY) interaction between BA and acarbose) | Vab (observed residual activity) (α-glucosidase [4]; BA 5 μM + acarbose 800 μM): 0.42 | Vab − Vc (α-glucosidase [4]; BA 5 μM + acarbose 800 μM): −0.15 | Vc (expected residual activity) (α-glucosidase [4]; BA 5 μM + acarbose 800 μM): 0.56 | Interaction (α-glucosidase [4]; BA 5 μM + acarbose 1000 μM): SY (Vab − Vc < −0.1 is considered as the synergistic (SY) interaction between BA and acarbose) | Vab (observed residual activity) (α-glucosidase [4]; BA 5 μM + acarbose 1000 μM): 0.41 | Vab − Vc (α-glucosidase [4]; BA 5 μM + acarbose 1000 μM): −0.13 | Vc (expected residual activity) (α-glucosidase [4]; BA 5 μM + acarbose 1000 μM): 0.53 | Interaction (α-glucosidase [4]; BA 10 μM + acarbose 600 μM): SY (Vab − Vc < −0.1 is considered as the synergistic (SY) interaction between BA and acarbose) | Vab (observed residual activity) (α-glucosidase [4]; BA 10 μM + acarbose 600 μM): 0.39 | Vab − Vc (α-glucosidase [4]; BA 10 μM + acarbose 600 μM): −0.18 | Vc (expected residual activity) (α-glucosidase [4]; BA 10 μM + acarbose 600 μM): 0.57 | Interaction (α-glucosidase [4]; BA 10 μM + acarbose 800 μM): SY (Vab − Vc < −0.1 is considered as the synergistic (SY) interaction between BA and acarbose) | Vab (observed residual activity) (α-glucosidase [4]; BA 10 μM + acarbose 800 μM): 0.36 | Vab − Vc (α-glucosidase [4]; BA 10 μM + acarbose 800 μM): −0.18 | Vc (expected residual activity) (α-glucosidase [4]; BA 10 μM + acarbose 800 μM): 0.54 | Interaction (α-glucosidase [4]; BA 10 μM + acarbose 1000 μM): SY (Vab − Vc < −0.1 is considered as the synergistic (SY) interaction between BA and acarbose) | Vab (observed residual activity) (α-glucosidase [4]; BA 10 μM + acarbose 1000 μM): 0.34 | Vab − Vc (α-glucosidase [4]; BA 10 μM + acarbose 1000 μM): −0.17 | Vc (expected residual activity) (α-glucosidase [4]; BA 10 μM + acarbose 1000 μM): 0.51 | Interaction (α-glucosidase [4]; BA 15 μM + acarbose 600 μM): SY (Vab − Vc < −0.1 is considered as the synergistic (SY) interaction between BA and acarbose) | Vab (observed residual activity) (α-glucosidase [4]; BA 15 μM + acarbose 600 μM): 0.32 | Vab − Vc (α-glucosidase [4]; BA 15 μM + acarbose 600 μM): −0.18 | Vc (expected residual activity) (α-glucosidase [4]; BA 15 μM + acarbose 600 μM): 0.50 | Interaction (α-glucosidase [4]; BA 15 μM + acarbose 800 μM): SY (Vab − Vc < −0.1 is considered as the synergistic (SY) interaction between BA and acarbose) | Vab (observed residual activity) (α-glucosidase [4]; BA 15 μM + acarbose 800 μM): 0.29 | Vab − Vc (α-glucosidase [4]; BA 15 μM + acarbose 800 μM): −0.18 | Vc (expected residual activity) (α-glucosidase [4]; BA 15 μM + acarbose 800 μM): 0.48 | Interaction (α-glucosidase [4]; BA 15 μM + acarbose 1000 μM): SY (Vab − Vc < −0.1 is considered as the synergistic (SY) interaction between BA and acarbose) | Vab (observed residual activity) (α-glucosidase [4]; BA 15 μM + acarbose 1000 μM): 0.28 | Vab − Vc (α-glucosidase [4]; BA 15 μM + acarbose 1000 μM): −0.16 | Vc (expected residual activity) (α-glucosidase [4]; BA 15 μM + acarbose 1000 μM): 0.45 | IC50 (α-glucosidase [5]): 10.6 to 83.6 µM | Kd (α-glucosidase [6]): 55.3 µM | fold stronger than acarbose (IC50) (α-glucosidase [7]; BA IC50 vs acarbose IC50): approximately 50 fold | IC50 (α-glucosidase [7]; pNPG 2.5 mM, pH 6.8, 37 °C, read-out: IC50 against α-glucosidase): 16.8 ± 1.16 µM

CC1(C)CC[C@]2(C(=O)O)CC[C@]3(C)C(=CC[C@@H]4[C@@]5(C)CC[C@H](O)C(C)(C)[C@@H]5CC[C@]43C)[C@@H]2C1 [oleanolic acid]
inhibition type (α-glucosidase [8]): non-competitive

C[C@H]1O[C@H](O[C@H]2[C@H](O)[C@@H](O)[C@@H](O[C@H]3[C@H](O)[C@@H](O)C(O)O[C@@H]3CO)O[C@@H]2CO)[C@H](O)[C@@H](O)[C@@H]1N[C@H]1C=C(CO)[C@@H](O)[C@H](O)[C@H]1O (stereo partly drawn) [acarbose, reference compound]
effect on blood glucose level after oral glucose [1]: no significant effect | postprandial blood glucose levels vs control [2]: significantly suppressed | blood glucose level at 30 min [2]: 10.76 ± 0.39 mM | inhibition type (α-glucosidase [8]): competitive

C[C@H]1[C@H](C)CC[C@]2(C(=O)O)CC[C@]3(C)C(=CC[C@@H]4[C@@]5(C)CC[C@H](O)C(C)(C)[C@@H]5CC[C@]43C)[C@H]12 [ursolic acid]
inhibition type (α-glucosidase [8]): non-competitive
